The numbers were not newly measured in patent US7341711B2, “Porphyrin compounds and their use in high-field MRI” (Guerbet, priority 2004, dated 2008), which cites them from elsewhere.

Each structure is given as a SMILES string. Where “and” joins values, the source holds several entries; their conditions need not be identical. Identical values can stand only once. Like-named read-outs stand apart in the source and are kept apart here.

As to `O=S(=O)([O-])c1ccc(-c2c3nc(c(-c4ccc(S(=O)(=O)[O-])cc4)c4ccc([n-]4)c(-c4ccc(S(=O)(=O)[O-])cc4)c4ccc([n-]4)c(-c4ccc(S(=O)(=O)[O-])cc4)c4nc2C=C4)C=C3)cc1.[Mn+3]` [MnTPPS4], the relaxivity is, setting by setting: (at 1.5 T) 17 mmol⁻¹ s⁻¹; (field not stated) about 10 mmol⁻¹ s⁻¹; (in blood plasma at 0.25 T) 10.7 mmol⁻¹ s⁻¹ and 12.2 mmol⁻¹ s⁻¹.
